Experimental data published in PubChem BioAssay AID256 (DTP/NCI, 2004).
“And” between values parts separate entries of the source, which are not always exact repeats. Equal entries are not always repeated. Toxic doses and inconclusive results are not listed.

Tested on: CD2F1 mice, L1210 leukemia ip, survival T/C
Assay: NCI In Vivo Anticancer Drug Screen. Data for tumor model L1210 Leukemia (intraperitoneal) in CD2F1 (CDF1) mice
Details: higher = longer survival
Procedure, shortened: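 Mice carrying a transplanted tumor received test compound or vehicle alone. The value is the measurement in the treated group divided by that in the vehicle-treated control group.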

[1] = endpoint: mean survival time, dose: 100.0 mg/kg/injection, schedule: Q01DX001 (ip), vehicle: saline with Tween-80
[2] = endpoint: mean survival time, dose: 100.0 mg/kg/injection, schedule: Q04DX003 (ip), vehicle: saline with Tween-80
[3] = endpoint: mean survival time, dose: 200.0 mg/kg/injection, schedule: Q04DX003 (ip), vehicle: saline with Tween-80
[4] = endpoint: mean survival time, dose: 400.0 mg/kg/injection, schedule: Q04DX003 (ip), vehicle: saline with Tween-80
[5] = endpoint: mean survival time, dose: 100.0 mg/kg/injection, schedule: Q01DX009 (ip), vehicle: saline with Tween-80

For `COc1cc(NCc2ccc3nc(N)nc(N)c3c2C)cc(OC)c1OC`, the T/C (endpoint: mean survival time, dose: 0.62 mg/kg/injection, schedule: Q01DX009 (ip), vehicle: sodium bicarbonate) was 102 % of control, the T/C (endpoint: mean survival time, dose: 1.25 mg/kg/injection, schedule: Q01DX009 (ip), vehicle: sodium bicarbonate) was 102 % of control and 106 % of control and the T/C (endpoint: mean survival time, dose: 1.87 mg/kg/injection, schedule: Q04DX003 (ip), vehicle: sodium bicarbonate) was 106 % of control. The T/C (endpoint: mean survival time, dose: 2.5 mg/kg/injection, schedule: Q01DX009 (ip), vehicle: sodium bicarbonate) was 110 % of control and 112 % of control, the T/C (endpoint: mean survival time, dose: 3.11 mg/kg/injection, schedule: Q01DX009 (ip), vehicle: other) was 118 % of control and the T/C (endpoint: mean survival time, dose: 3.75 mg/kg/injection, schedule: Q04DX003 (ip), vehicle: sodium bicarbonate) was 96 % of control. For the same compound, the T/C (endpoint: mean survival time, dose: 5.0 mg/kg/injection, schedule: Q01DX009 (ip), vehicle: sodium bicarbonate) was 121 % of control and 110 % of control, the T/C (endpoint: mean survival time, dose: 5.18 mg/kg/injection, schedule: Q01DX009 (ip), vehicle: other) was 121 % of control and the T/C (endpoint: mean survival time, dose: 5.27 mg/kg/injection, schedule: Q01DX009 (ip), vehicle: Klucel (hydroxypropylcellulose) (HPC)) was 122 % of control. For the same compound, the T/C (endpoint: mean survival time, dose: 7.05 mg/kg/injection, schedule: Q01DX009 (ip), vehicle: water) was 117 % of control, the T/C (endpoint: mean survival time, dose: 7.5 mg/kg/injection, schedule: Q04DX003 (ip), vehicle: sodium bicarbonate) was 110 % of control and the T/C (endpoint: mean survival time, dose: 10.5 mg/kg/injection, schedule: Q01DX009 (ip), vehicle: water) was 123 % of control. The T/C (endpoint: mean survival time, dose: 15.0 mg/kg/injection, schedule: Q04DX003 (ip), vehicle: sodium bicarbonate) was 112 % of control, the T/C (endpoint: mean survival time, dose: 17.8 mg/kg/injection, schedule: Q01DX009 (ip), vehicle: Klucel (hydroxypropylcellulose) (HPC)) was 174 % of control and the T/C (endpoint: mean survival time, dose: 20.0 mg/kg/injection, schedule: Q01DX009 (ip), vehicle: sodium bicarbonate) was 156 % of control and 160 % of control. For the same compound, the T/C (endpoint: mean survival time, dose: 24.0 mg/kg/injection, schedule: Q01DX009 (ip), vehicle: other) was 152 % of control, the T/C (endpoint: mean survival time, dose: 26.7 mg/kg/injection, schedule: Q01DX009 (ip), vehicle: Klucel (hydroxypropylcellulose) (HPC)) was 191 % of control and the T/C (endpoint: mean survival time, dose: 30.0 mg/kg/injection, schedule: Q04DX003 (ip), vehicle: sodium bicarbonate) was 114 % of control. The T/C (endpoint: mean survival time, dose: 40.0 mg/kg/injection, schedule: Q01DX009 (ip), vehicle: Klucel (hydroxypropylcellulose) (HPC)) was 216 % of control, the T/C (endpoint: mean survival time, dose: 40.0 mg/kg/injection, schedule: Q01DX009 (ip), vehicle: other) was 167 % of control and the T/C (endpoint: mean survival time, dose: 40.0 mg/kg/injection, schedule: Q01DX009 (ip), vehicle: sodium bicarbonate) was 110 % of control. The T/C (endpoint: mean survival time, dose: 60.0 mg/kg/injection, schedule: Q01DX009 (ip), vehicle: Klucel (hydroxypropylcellulose) (HPC)) was 122 % of control, the T/C (endpoint: mean survival time, dose: 80.0 mg/kg/injection, schedule: Q01DX009 (ip), vehicle: water) was 151 % of control and the T/C (endpoint: mean survival time, dose: 90.0 mg/kg/injection, schedule: Q01DX009 (ip), vehicle: Klucel (hydroxypropylcellulose) (HPC)) was 116 % of control. For the same compound, the T/C (endpoint: median survival time, dose: 2.5 mg/kg/injection, schedule: Q01DX009 (ip), vehicle: sodium bicarbonate) was 109 % of control, the T/C (endpoint: median survival time, dose: 5.0 mg/kg/injection, schedule: Q01DX009 (ip), vehicle: Klucel (hydroxypropylcellulose) (HPC)) was 119 % of control and the T/C (endpoint: median survival time, dose: 5.0 mg/kg/injection, schedule: Q01DX009 (ip), vehicle: sodium bicarbonate) was 117 % of control and 124 % of control. The T/C (endpoint: median survival time, dose: 6.25 mg/kg/injection, schedule: Q01DX009 (ip), vehicle: water) was 124 % of control, the T/C (endpoint: median survival time, dose: 7.5 mg/kg/injection, schedule: Q01DX005 (ip), vehicle: Klucel (hydroxypropylcellulose) (HPC)) was 150 % of control and the T/C (endpoint: median survival time, dose: 10.0 mg/kg/injection, schedule: Q01DX009 (ip), vehicle: Klucel (hydroxypropylcellulose) (HPC)) was 151 % of control. For the same compound, the T/C (endpoint: median survival time, dose: 15.0 mg/kg/injection, schedule: Q01DX005 (ip), vehicle: Klucel (hydroxypropylcellulose) (HPC)) was 167 % of control, the T/C (endpoint: median survival time, dose: 18.0 mg/kg/injection, schedule: Q01DX009 (ip), vehicle: distilled water + Tween-80) was 153 % of control and the T/C (endpoint: median survival time, dose: 20.0 mg/kg/injection, schedule: Q01DX009 (ip), vehicle: Klucel (hydroxypropylcellulose) (HPC)) was 172 % of control. The T/C (endpoint: median survival time, dose: 20.0 mg/kg/injection, schedule: Q01DX009 (ip), vehicle: sodium bicarbonate) was 152 % of control and 157 % of control, the T/C (endpoint: median survival time, dose: 25.0 mg/kg/injection, schedule: Q01DX009 (ip), vehicle: water) was 157 % of control and the T/C (endpoint: median survival time, dose: 27.0 mg/kg/injection, schedule: Q01DX009 (ip), vehicle: distilled water + Tween-80) was 165 % of control. For the same compound, the T/C (endpoint: median survival time, dose: 30.0 mg/kg/injection, schedule: Q01DX005 (ip), vehicle: Klucel (hydroxypropylcellulose) (HPC)) was 166 % of control and 175 % of control, the T/C (endpoint: median survival time, dose: 40.0 mg/kg/injection, schedule: Q01DX009 (ip), vehicle: distilled water + Tween-80) was 158 % of control and 168 % of control and the T/C (endpoint: median survival time, dose: 40.0 mg/kg/injection, schedule: Q01DX009 (ip), vehicle: sodium bicarbonate) was 168 % of control and 181 % of control. For the same compound, the T/C (endpoint: median survival time, dose: 44.0 mg/kg/injection, schedule: Q01DX009 (ip), vehicle: water) was 154 % of control, the T/C (endpoint: median survival time, dose: 50.0 mg/kg/injection, schedule: Q01DX009 (ip), vehicle: water) was 157 % of control and 165 % of control and the T/C (endpoint: median survival time, dose: 60.0 mg/kg/injection, schedule: Q01DX005 (ip), vehicle: Klucel (hydroxypropylcellulose) (HPC)) was 184 % of control and 185 % of control. The T/C (endpoint: median survival time, dose: 60.0 mg/kg/injection, schedule: Q01DX009 (ip), vehicle: distilled water + Tween-80) was 160 % of control and 182 % of control, the T/C (endpoint: median survival time, dose: 80.0 mg/kg/injection, schedule: Q01DX009 (ip), vehicle: Klucel (hydroxypropylcellulose) (HPC)) was 112 % of control and the T/C (endpoint: median survival time, dose: 90.0 mg/kg/injection, schedule: Q01DX009 (ip), vehicle: distilled water + Tween-80) was 118 % of control. The T/C (endpoint: median survival time, dose: 100.0 mg/kg/injection, schedule: Q01DX009 (ip), vehicle: water) was 173 % of control and 184 % of control and the T/C (endpoint: median survival time, dose: 120.0 mg/kg/injection, schedule: Q01DX005 (ip), vehicle: Klucel (hydroxypropylcellulose) (HPC)) was 236 % of control.

For `CC1(C)COC(c2ccc(-c3ccc(C4=NC(C)(C)CO4)cc3)cc2)=N1`, the T/C [1] was 105 % of control, the T/C (endpoint: mean survival time, dose: 200.0 mg/kg/injection, schedule: Q01DX001 (ip), vehicle: saline with Tween-80) was 100 % of control and the T/C (endpoint: mean survival time, dose: 400.0 mg/kg/injection, schedule: Q01DX001 (ip), vehicle: saline with Tween-80) was 100 % of control.

For `C1=CC2c3ccc4ccccc4c3C(c3ccccc3)C2C=C1` (stereo not given), the T/C [2] was 108 % of control, the T/C [3] was 96 % of control and the T/C [4] was 102 % of control.

For `CC(C)C1=CC2=CCC3C(C)(CN)CCCC3(C)C2CC1CCN` (stereo not given), the T/C (endpoint: mean survival time, dose: 1.25 mg/kg/injection, schedule: Q01DX009 (ip), vehicle: saline with Tween-80) was 101 % of control, the T/C (endpoint: mean survival time, dose: 2.5 mg/kg/injection, schedule: Q01DX009 (ip), vehicle: saline with Tween-80) was 97 % of control and the T/C (endpoint: mean survival time, dose: 5.0 mg/kg/injection, schedule: Q01DX009 (ip), vehicle: saline with Tween-80) was 94 % of control.

With `C[As](C)[Se]CC1OC(O)C(O)C(O)C1O` (stereo not given) the T/C (endpoint: mean survival time, dose: 12.5 mg/kg/injection, schedule: Q04DX003 (ip), vehicle: saline with Tween-80) was 97 % of control, the T/C (endpoint: mean survival time, dose: 25.0 mg/kg/injection, schedule: Q04DX003 (ip), vehicle: saline with Tween-80) was 101 % of control and the T/C (endpoint: mean survival time, dose: 50.0 mg/kg/injection, schedule: Q04DX003 (ip), vehicle: saline with Tween-80) was 98 % of control.

In the case of `CC1(C)COC(CCc2ccccc2)=N1`, the T/C (endpoint: mean survival time, dose: 100.0 mg/kg/injection, schedule: Q04DX002 (ip), vehicle: saline with Tween-80) is reported as 108 % of control, the T/C [2] is reported as 104 % of control and the T/C (endpoint: mean survival time, dose: 200.0 mg/kg/injection, schedule: Q04DX002 (ip), vehicle: saline with Tween-80) is reported as 101 % of control. For the same compound, the T/C [3] was 93 % of control, the T/C (endpoint: mean survival time, dose: 400.0 mg/kg/injection, schedule: Q04DX002 (ip), vehicle: saline with Tween-80) was 101 % of control and the T/C [4] was 86 % of control.

With `CC/C(=C/c1ccc2c(c1)OCO2)[N+](=O)[O-]` the T/C [1] was 105 % of control.

With `O=C(OCCO)c1ccccc1` the T/C [5] was 98 % of control, the T/C [2] was 95 % of control and the T/C (endpoint: mean survival time, dose: 200.0 mg/kg/injection, schedule: Q01DX009 (ip), vehicle: saline with Tween-80) was 97 % of control. For the same compound, the T/C [3] was 98 % of control, the T/C (endpoint: mean survival time, dose: 400.0 mg/kg/injection, schedule: Q01DX009 (ip), vehicle: saline with Tween-80) was 97 % of control and the T/C [4] was 103 % of control.

With `Cc1ccc([NH-])cc1C.Cc1ccc([NH-])cc1C.[Cl][Pt+2][Cl]` the T/C (endpoint: mean survival time, dose: 3.12 mg/kg/injection, schedule: Q04DX003 (ip), vehicle: distilled water + Tween-80) was 103 % of control, the T/C (endpoint: mean survival time, dose: 6.25 mg/kg/injection, schedule: Q04DX003 (ip), vehicle: distilled water + Tween-80) was 103 % of control and the T/C (endpoint: mean survival time, dose: 12.5 mg/kg/injection, schedule: Q04DX003 (ip), vehicle: distilled water + Tween-80) was 108 % of control. The T/C (endpoint: mean survival time, dose: 25.0 mg/kg/injection, schedule: Q04DX003 (ip), vehicle: distilled water + Tween-80) was 106 % of control and the T/C (endpoint: mean survival time, dose: 50.0 mg/kg/injection, schedule: Q04DX003 (ip), vehicle: distilled water + Tween-80) was 108 % of control.

For `CSC(Cl)=C(Cl)Cl`, the T/C (endpoint: mean survival time, dose: 25.0 mg/kg/injection, schedule: Q01DX009 (ip), vehicle: saline with Tween-80) was 97 % of control, the T/C (endpoint: mean survival time, dose: 50.0 mg/kg/injection, schedule: Q01DX009 (ip), vehicle: saline with Tween-80) was 95 % of control and the T/C [5] was 97 % of control.
